Experiments:
Assay in all cases: Test D pre-/postemergence controlled growth environment herbicide test
Assay type in all cases: in vivo
Conditions in all cases: scale 0 to 100
[1] = tested on: wheat, spring (spring wheat, Triticum aestivum)
Procedure, shortened: (§1)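 Ratings come from visual comparison with untreated plants on a 0–100 scale, 0 meaning no effect. Test chemicals in surfactant-containing solvent were applied either to soil at planting (silt loam) or over foliage of 2–18 cm plants in peat-based medium, then held 14–21 d in a controlled growth environment.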

[2] = tested on: chamomile (scentless chamomile, Matricaria inodora)
Procedure, shortened: as §1

[3] = tested on: bluegrass (annual bluegrass, Poa annua)
Procedure, shortened: as §1

[4] = tested on: foxtail, green (green foxtail, Setaria viridis)
Procedure, shortened: as §1

[5] = tested on: lambsquarters (Chenopodium album)
Procedure, shortened: as §1

[6] = tested on: field poppy (Papaver rhoeas)
Procedure, shortened: as §1

[7] = tested on: windgrass (Apera spica-venti)
Procedure, shortened: as §1

[8] = tested on: oat, wild (wild oat, Avena fatua)
Procedure, shortened: as §1

[9] = tested on: deadnettle (henbit deadnettle, Lamium amplexicaule)
Procedure, shortened: as §1

[10] = tested on: radish, wild (wild radish, Raphanus raphanistrum)
Procedure, shortened: as §1

[11] = tested on: field violet (Viola arvensis)
Procedure, shortened: as §1

Compound Cc1cc(=O)n(-c2ccc(F)cc2)nc1Oc1ccnc(C(F)(F)F)c1 [Compound 14, 2-(4-fluorophenyl)-5-methyl-6-[[2-(trifluoromethyl)-4-pyridinyl]oxy]-3 (2H)-pyridazinone] has a Plant response rating ([1]; Postemergence, 16 g ai/ha) of 5, a Plant response rating ([1]; Postemergence, 31 g ai/ha) of 10 and a Plant response rating ([1]; Postemergence, 62 g ai/ha) of 15. The Plant response rating ([1]; Postemergence, 125 g ai/ha) was 15, the Plant response rating ([1]; Postemergence, 250 g ai/ha) was 15 and the Plant response rating ([1]; Preemergence, 16 g ai/ha) was 0. It also gave a Plant response rating ([1]; Preemergence, 31 g ai/ha) of 0, a Plant response rating ([1]; Preemergence, 62 g ai/ha) of 0 and a Plant response rating ([1]; Preemergence, 125 g ai/ha) of 10. It also gave a Plant response rating ([1]; Preemergence, 250 g ai/ha) of 15, a Plant response rating ([2]; Postemergence, 16 g ai/ha) of 5 and a Plant response rating ([2]; Postemergence, 31 g ai/ha) of 10. The Plant response rating ([2]; Postemergence, 62 g ai/ha) was 10, the Plant response rating ([2]; Postemergence, 125 g ai/ha) was 20 and the Plant response rating ([2]; Postemergence, 250 g ai/ha) was 25. The Plant response rating ([2]; Preemergence, 16 g ai/ha) was 5, the Plant response rating ([2]; Preemergence, 31 g ai/ha) was 10 and the Plant response rating ([2]; Preemergence, 62 g ai/ha) was 25. The Plant response rating ([2]; Preemergence, 125 g ai/ha) was 85, the Plant response rating ([2]; Preemergence, 250 g ai/ha) was 80 and the Plant response rating ([3]; Postemergence, 16 g ai/ha) was 15. It also gave a Plant response rating ([3]; Postemergence, 31 g ai/ha) of 20, a Plant response rating ([3]; Postemergence, 62 g ai/ha) of 20 and a Plant response rating ([3]; Postemergence, 125 g ai/ha) of 15. For the same compound, the Plant response rating ([3]; Postemergence, 250 g ai/ha) was 30, the Plant response rating ([3]; Preemergence, 16 g ai/ha) was 5 and the Plant response rating ([3]; Preemergence, 31 g ai/ha) was 0. For the same compound, the Plant response rating ([3]; Preemergence, 62 g ai/ha) was 0, the Plant response rating ([3]; Preemergence, 125 g ai/ha) was 10 and the Plant response rating ([3]; Preemergence, 250 g ai/ha) was 35. For the same compound, the Plant response rating ([4]; Postemergence, 16 g ai/ha) was 30, the Plant response rating ([4]; Postemergence, 31 g ai/ha) was 10 and the Plant response rating ([4]; Postemergence, 62 g ai/ha) was 20. The Plant response rating ([4]; Postemergence, 125 g ai/ha) was 15, the Plant response rating ([4]; Postemergence, 250 g ai/ha) was 15 and the Plant response rating ([4]; Preemergence, 16 g ai/ha) was 0. For the same compound, the Plant response rating ([4]; Preemergence, 31 g ai/ha) was 15, the Plant response rating ([4]; Preemergence, 62 g ai/ha) was 40 and the Plant response rating ([4]; Preemergence, 125 g ai/ha) was 70. For the same compound, the Plant response rating ([4]; Preemergence, 250 g ai/ha) was 100, the Plant response rating ([5]; Postemergence, 16 g ai/ha) was 55 and the Plant response rating ([5]; Postemergence, 31 g ai/ha) was 60. It also gave a Plant response rating ([5]; Postemergence, 62 g ai/ha) of 70, a Plant response rating ([5]; Postemergence, 125 g ai/ha) of 80 and a Plant response rating ([5]; Postemergence, 250 g ai/ha) of 90. The Plant response rating ([5]; Preemergence, 16 g ai/ha) was 5, the Plant response rating ([5]; Preemergence, 31 g ai/ha) was 25 and the Plant response rating ([5]; Preemergence, 62 g ai/ha) was 20. The Plant response rating ([5]; Preemergence, 125 g ai/ha) was 95, the Plant response rating ([5]; Preemergence, 250 g ai/ha) was 95 and the Plant response rating ([6]; Postemergence, 16 g ai/ha) was 75. The Plant response rating ([6]; Postemergence, 31 g ai/ha) was 20, the Plant response rating ([6]; Postemergence, 62 g ai/ha) was 75 and the Plant response rating ([6]; Postemergence, 125 g ai/ha) was 50. For the same compound, the Plant response rating ([6]; Postemergence, 250 g ai/ha) was 80, the Plant response rating ([6]; Preemergence, 16 g ai/ha) was 95 and the Plant response rating ([6]; Preemergence, 31 g ai/ha) was 100. For the same compound, the Plant response rating ([6]; Preemergence, 62 g ai/ha) was 100, the Plant response rating ([6]; Preemergence, 125 g ai/ha) was 100 and the Plant response rating ([6]; Preemergence, 250 g ai/ha) was 100. For the same compound, the Plant response rating ([7]; Postemergence, 16 g ai/ha) was 5, the Plant response rating ([7]; Postemergence, 31 g ai/ha) was 5 and the Plant response rating ([7]; Postemergence, 62 g ai/ha) was 10. For the same compound, the Plant response rating ([7]; Postemergence, 125 g ai/ha) was 10, the Plant response rating ([7]; Postemergence, 250 g ai/ha) was 60 and the Plant response rating ([7]; Preemergence, 16 g ai/ha) was 10. For the same compound, the Plant response rating ([7]; Preemergence, 31 g ai/ha) was 5, the Plant response rating ([7]; Preemergence, 62 g ai/ha) was 5 and the Plant response rating ([7]; Preemergence, 125 g ai/ha) was 35. For the same compound, the Plant response rating ([7]; Preemergence, 250 g ai/ha) was 65, the Plant response rating ([8]; Postemergence, 16 g ai/ha) was 10 and the Plant response rating ([8]; Postemergence, 31 g ai/ha) was 10. The Plant response rating ([8]; Postemergence, 62 g ai/ha) was 15, the Plant response rating ([8]; Postemergence, 125 g ai/ha) was 20 and the Plant response rating ([8]; Postemergence, 250 g ai/ha) was 30. For the same compound, the Plant response rating ([8]; Preemergence, 16 g ai/ha) was 0, the Plant response rating ([8]; Preemergence, 31 g ai/ha) was 0 and the Plant response rating ([8]; Preemergence, 62 g ai/ha) was 0. The Plant response rating ([8]; Preemergence, 125 g ai/ha) was 10, the Plant response rating ([8]; Preemergence, 250 g ai/ha) was 20 and the Plant response rating ([9]; Postemergence, 16 g ai/ha) was 50. It also gave a Plant response rating ([9]; Postemergence, 31 g ai/ha) of 60, a Plant response rating ([9]; Postemergence, 62 g ai/ha) of 60 and a Plant response rating ([9]; Postemergence, 125 g ai/ha) of 65. It also gave a Plant response rating ([9]; Postemergence, 250 g ai/ha) of 80, a Plant response rating ([9]; Preemergence, 16 g ai/ha) of 60 and a Plant response rating ([9]; Preemergence, 31 g ai/ha) of 15. For the same compound, the Plant response rating ([9]; Preemergence, 62 g ai/ha) was 40, the Plant response rating ([9]; Preemergence, 125 g ai/ha) was 65 and the Plant response rating ([9]; Preemergence, 250 g ai/ha) was 100. For the same compound, the Plant response rating ([10]; Postemergence, 16 g ai/ha) was 40, the Plant response rating ([10]; Postemergence, 31 g ai/ha) was 80 and the Plant response rating ([10]; Postemergence, 62 g ai/ha) was 70. It also gave a Plant response rating ([10]; Postemergence, 125 g ai/ha) of 75, a Plant response rating ([10]; Postemergence, 250 g ai/ha) of 80 and a Plant response rating ([10]; Preemergence, 16 g ai/ha) of 100. The Plant response rating ([10]; Preemergence, 31 g ai/ha) was 100, the Plant response rating ([10]; Preemergence, 62 g ai/ha) was 100 and the Plant response rating ([10]; Preemergence, 125 g ai/ha) was 100. The Plant response rating ([10]; Preemergence, 250 g ai/ha) was 100, the Plant response rating ([11]; Postemergence, 16 g ai/ha) was 60 and the Plant response rating ([11]; Postemergence, 31 g ai/ha) was 70. The Plant response rating ([11]; Postemergence, 62 g ai/ha) was 65, the Plant response rating ([11]; Postemergence, 125 g ai/ha) was 100 and the Plant response rating ([11]; Postemergence, 250 g ai/ha) was 100. The Plant response rating ([11]; Preemergence, 16 g ai/ha) was 85, the Plant response rating ([11]; Preemergence, 31 g ai/ha) was 95 and the Plant response rating ([11]; Preemergence, 62 g ai/ha) was 100. The Plant response rating ([11]; Preemergence, 125 g ai/ha) was 95 and the Plant response rating ([11]; Preemergence, 250 g ai/ha) was 100.

Source: patent publication US10202361B2, “Pyridazinones as herbicides” (E I DU PONT DE NEMOURS AND COMPANY, priority 2014, dated 2019)
